In ChEMBL document CHEMBL1201862, “PubChem BioAssay data set” (2004):
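Briefly, cells in 96-well plates were exposed to five compound concentrations for 48 h, and endpoints were estimated by linear interpolation. The concentration for 50% growth inhibition is given as GI50.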 Activity calls are given as the source filed them. Cut-off read from the data, not from the text of the source: active = GI50 up to about 1.1 µM and inactive = higher.

Experiments:
Test in all cases: NCI-60 cell line screen, 48 h
A498 = system: A498
A549 = system: A549
COLO 205 = system: COLO 205
KM12 = system: KM12
MDA-MB-231 = system: MDA-MB-231
MOLT-4 = system: MOLT-4
NCI-H226 = system: NCI-H226
OVCAR-3 = system: OVCAR-3
OVCAR-4 = system: OVCAR-4
PC-3 = system: PC-3
RPMI-8226 = system: RPMI-8226
SF-268 = system: SF-268
SF-295 = system: SF-295
SF-539 = system: SF-539
SK-MEL-5 = system: SK-MEL-5
SK-OV-3 = system: SK-OV-3
SW-620 = system: SW-620
T47D = system: T47D
HOP-92 = system: HOP-92

Measured: GI50

Cc1ccc(NCCCN2CCN(CCCNc3ccc(C)c4sc5ccccc5c(=O)c34)CC2)c2c(=O)c3ccccc3sc12
inactive: A498 82 µM | A549 > 100 µM | COLO 205 > 100 µM | KM12 > 100 µM | MDA-MB-231 > 100 µM | MOLT-4 > 100 µM | NCI-H226 > 100 µM | OVCAR-3 > 100 µM | OVCAR-4 > 100 µM | PC-3 21.4 µM | RPMI-8226 > 100 µM | SF-268 34.2 µM | SF-295 55.6 µM | SF-539 > 100 µM | SK-MEL-5 > 100 µM | SK-OV-3 > 100 µM | SW-620 > 100 µM | T47D 58.7 µM

Cn1c(=O)c2c(nc3n(Cc4ccccc4)c(=O)c(NCCBr)cn23)n(C)c1=O
inactive: A498 34.9 µM | A549 29.6 µM | COLO 205 49.1 µM | HOP-92 12 µM | KM12 63.5 µM | MDA-MB-231 26.5 µM | MOLT-4 45.6 µM | NCI-H226 19.9 µM | OVCAR-3 19.1 µM | OVCAR-4 16.3 µM | PC-3 20.1 µM | RPMI-8226 23.8 µM | SF-268 25.8 µM | SF-295 21.9 µM | SK-MEL-5 26.2 µM | SK-OV-3 25.3 µM | SW-620 90.6 µM | T47D 21.1 µM

ClC(Cl)(Cl)C(N1CCN(c2ccccc2)CC1)N1CCN(c2ccccc2)CC1
inactive: A498 > 100 µM | A549 > 100 µM | COLO 205 > 100 µM | HOP-92 > 100 µM | KM12 > 100 µM | MDA-MB-231 > 100 µM | MOLT-4 > 100 µM | NCI-H226 > 100 µM | OVCAR-4 > 100 µM | PC-3 > 100 µM | RPMI-8226 > 100 µM | SF-268 > 100 µM | SK-MEL-5 > 100 µM | T47D > 100 µM

Cc1ccsc1/C=N/Nc1ccccn1
inactive: A498 55 µM | A549 7.4 µM | COLO 205 71.1 µM | HOP-92 49.3 µM | KM12 35.6 µM | MDA-MB-231 50 µM | MOLT-4 32.8 µM | NCI-H226 > 100 µM | OVCAR-3 47.5 µM | OVCAR-4 76.2 µM | PC-3 39.5 µM | RPMI-8226 19.3 µM | SF-268 > 100 µM | SF-295 > 100 µM | SK-MEL-5 25.9 µM | SK-OV-3 > 100 µM | SW-620 74.3 µM | T47D 60.7 µM

O=[N+]([O-])C(=C(Nc1ccccc1)Nc1ccccc1)/C(Cl)=C(\Cl)[N+](=O)[O-]
inactive: A498 19.7 µM | A549 10.8 µM | COLO 205 2.67 µM | KM12 3.98 µM | MDA-MB-231 3.88 µM | MOLT-4 2.43 µM | NCI-H226 12.7 µM | OVCAR-3 2.82 µM | OVCAR-4 6.62 µM | PC-3 5.65 µM | RPMI-8226 3.15 µM | SF-268 2.98 µM | SF-295 9.35 µM | SF-539 1.84 µM | SK-MEL-5 2.02 µM | SK-OV-3 20.3 µM | SW-620 2.19 µM | T47D 2.02 µM

O=c1[nH]cnc2cccc(Cl)c12
inactive: A498 > 100 µM | A549 > 100 µM | COLO 205 > 100 µM | KM12 > 100 µM | MDA-MB-231 > 100 µM | MOLT-4 > 100 µM | NCI-H226 > 100 µM | OVCAR-3 > 100 µM | OVCAR-4 > 100 µM | PC-3 > 100 µM | SF-268 > 100 µM | SF-295 > 100 µM | SF-539 > 100 µM | SK-MEL-5 > 100 µM | SK-OV-3 > 100 µM | SW-620 > 100 µM | T47D > 100 µM

N=c1nc(N)nc(N)n1-c1ccc(S(N)(=O)=O)cc1
inactive: A498 > 100 µM | A549 > 100 µM | HOP-92 > 100 µM | KM12 > 100 µM | MDA-MB-231 > 100 µM | MOLT-4 > 100 µM | NCI-H226 > 100 µM | OVCAR-3 > 100 µM | OVCAR-4 > 100 µM | PC-3 > 100 µM | SF-268 > 100 µM | SF-295 > 100 µM | SK-MEL-5 > 100 µM | SW-620 > 100 µM | T47D > 100 µM

CC1(CCCC2(C)CCNC2=O)OCCO1 (stereo unspecified)
inactive: A498 > 10 µM | A549 > 10 µM | COLO 205 > 10 µM | KM12 > 10 µM | MDA-MB-231 > 10 µM | MOLT-4 > 10 µM | NCI-H226 > 10 µM | OVCAR-3 > 10 µM | OVCAR-4 > 10 µM | PC-3 > 10 µM | RPMI-8226 > 10 µM | SF-268 > 10 µM | SF-295 > 10 µM | SF-539 > 10 µM | SK-MEL-5 > 10 µM | SK-OV-3 > 10 µM | SW-620 > 10 µM | T47D > 10 µM
